Key:
CDK2/CycA2 = CDK2/CycA2 (Homo sapiens, UniProt P24941); experiment: CDK2 mobility shift assay (enzymatic activity of CDK2/CycA2); format: biochemical; settings: 1.25 nM CDK2/CycA2, 37 μM ATP, FL Peptide 18, 120 min at room temperature; read-out: CDK2 IC50
In short: (§1)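 Carna CDK5/p25 (0.154 nM) or CDK2/CycA2 (1.25 nM) was preincubated 30 min with compound, ATP ([…] for CDK5; 37 μM for CDK2) and 10 mM MgCl2 in HEPES pH 7.5. The reaction was started with 1.5 μM FL peptide (29 for CDK5, 18 for CDK2) and run 60 min (CDK5) or 120 min (CDK2) at room temperature. Product was read by mobility shift, with IC50 from a 4-parameter fit.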

CDK5/p25 = CDK5/p25 (Homo sapiens, UniProt Q00535); experiment: CDK5 mobility shift assay (enzymatic activity of CDK5/p25); format: biochemical; settings: for IC50: 0.154 nM CDK5/p25, FL peptide 29, 60 min at room temperature, read-out: CDK5 IC50; for CDK5/CDK2 specificity: fold more active against CDK5 than CDK2
Sequence of CDK5/p25 (Q00535 whole entry): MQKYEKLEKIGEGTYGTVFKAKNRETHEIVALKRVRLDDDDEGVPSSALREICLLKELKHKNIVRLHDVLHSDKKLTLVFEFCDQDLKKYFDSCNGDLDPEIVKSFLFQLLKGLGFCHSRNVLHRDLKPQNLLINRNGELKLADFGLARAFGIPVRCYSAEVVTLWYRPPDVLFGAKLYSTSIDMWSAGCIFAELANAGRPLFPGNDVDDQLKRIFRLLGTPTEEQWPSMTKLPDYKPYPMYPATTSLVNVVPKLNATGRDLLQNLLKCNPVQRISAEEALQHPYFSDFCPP
Sequence of CDK5/p25 (Q15078 99-307 partner limits assumed): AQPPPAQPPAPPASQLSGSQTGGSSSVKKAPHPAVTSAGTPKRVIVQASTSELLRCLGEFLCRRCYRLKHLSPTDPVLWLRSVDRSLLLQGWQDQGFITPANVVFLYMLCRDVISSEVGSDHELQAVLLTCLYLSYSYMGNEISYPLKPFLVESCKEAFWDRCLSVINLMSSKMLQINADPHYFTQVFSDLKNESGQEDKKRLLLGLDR
In short: as §1

Row | Structure (SMILES) | IC50 (CDK2/CycA2) [µM] | IC50 (CDK5/p25) [µM] | CDK5/CDK2 specificity (CDK5/p25)
1 | C=C(c1ccc2cnc(Nc3ccc(-n4ccc(CO)n4)cc3F)cc2n1)C1CCN(C)CC1 [Compound 168, [1-[3-fluoro-4-([2-[1-(1-methylpiperidin-4-yl)ethenyl]-1,6-naphthyridin-7-yl]amino)phenyl]pyrazol-3-yl]methanol] | 0.1 to 1 | < 0.01 | +++ (greater than 100-fold more active against CDK5 than CDK2)
2 | Fc1cc(-n2cccn2)ccc1Nc1cc2nc(C(F)(F)C3CCNCC3)ccc2cn1 [Compound 169, 2-[difluoro(piperidin-4-yl)methyl]-N-[2-fluoro-4-(pyrazol-1-yl)phenyl]-1,6-naphthyridin-7-amine] | 0.01 to 0.1 | < 0.01 | ++ (greater than 10-fold and less than or equal to 100-fold more active against CDK5 than CDK2)
3 | CN(C)[C@H]1CC[C@@H](N(CC(=O)O)c2ccc3cnc(Nc4ccc(-n5ccc(CO)n5)cc4F)cc3n2)CC1 [Compound 182, [[7-([2-fluoro-4-[3-(hydroxymethyl)pyrazol-1-yl]phenyl]amino)-1,6-naphthyridin-2-yl][(1s,4s)-4-(dimethylamino)cyclohexyl]amino]acetic acid] | > 1 | > 1 | ++ (greater than 10-fold and less than or equal to 100-fold more active against CDK5 than CDK2)
4 | CN1CCC(S(=O)(=O)c2ccc3cnc(Nc4ccc(-c5ccc(F)cc5)cc4F)cc3n2)CC1 [Compound 183, N-{3,4′-difluoro-[1,1′-biphenyl]-4-yl}-2-(1-methylpiperidin-4-ylsulfonyl)-1,6-naphthyridin-7-amine] | > 1 | < 0.01 | +++ (greater than 100-fold more active against CDK5 than CDK2)
5 | CC(O)(c1ccc2cnc(Nc3ccc(-n4cccn4)cc3F)cc2n1)C1CCNCC1 (stereo not drawn) [Compound 196, 1-(7-[[2-fluoro-4-(pyrazol-1-yl)phenyl]amino]-1,6-naphthyridin-2-yl)-1-(piperidin-4-yl)ethanol] | 0.1 to 1 | < 0.01 | ++ (greater than 10-fold and less than or equal to 100-fold more active against CDK5 than CDK2)
6 | CN1CCC(S(=O)(=O)c2ccc3cnc(Nc4ccc(-n5ccc(C(=O)O)n5)cc4F)cc3n2)CC1 [Compound 198, 1-(3-fluoro-4-((2-((1-methylpiperidin-4-yl)sulfonyl)-1,6-naphthyridin-7-yl)amino)phenyl)-1H-pyrazole-3-carboxylic acid] | 0.1 to 1 | < 0.01 | +++ (greater than 100-fold more active against CDK5 than CDK2)
7 | CN1CCC(NS(=O)(=O)c2ccc3cnc(Nc4ccc(-n5ccc(CO)n5)cc4F)cc3n2)CC1 [Compound 203, 7-([2-fluoro-4-[3-(hydroxymethyl)pyrazol-1-yl]phenyl]amino)-N-(1-methylpiperidin-4-yl)-1,6-naphthyridine-2-sulfonamide] | > 1 | 0.1 to 1 | + (10-fold or less more active against CDK5 than CDK2)
8 | O=S(=O)(Cc1ccc2cnc(Nc3ccc(-n4ccc(CO)n4)cc3F)cc2n1)C1CCNCC1 [Compound 207, [1-[3-fluoro-4-([2-[(piperidine-4-sulfonyl)methyl]-1,6-naphthyridin-7-yl]amino)phenyl]pyrazol-3-yl]methanol] | > 1 | 0.1 to 1 | + (10-fold or less more active against CDK5 than CDK2)
9 | O=S(=O)(c1ccc2cnc(Nc3ccc(-n4ccc(CO)n4)cc3F)cc2n1)N1CCNCC1 [Compound 208, [1-(3-fluoro-4-[[2-(piperazine-1-sulfonyl)-1,6-naphthyridin-7-yl]amino]phenyl)pyrazol-3-yl]methanol] | 0.1 to 1 | 0.01 to 0.1 | + (10-fold or less more active against CDK5 than CDK2)
10 | OC(c1ccc2cnc(Nc3ccc(-n4cccn4)cc3F)cc2n1)C1(O)CCNCC1 (stereo not drawn) [Compound 209, 4-[(7-[[2-fluoro-4-(pyrazol-1-yl)phenyl]amino]-1,6-naphthyridin-2-yl) (hydroxy)methyl]piperidin-4-ol] | > 1 | 0.1 to 1 | ++ (greater than 10-fold and less than or equal to 100-fold more active against CDK5 than CDK2)
11 | NC1CCN(C(=O)c2ccc3cnc(Nc4ccc(-n5cccn5)cc4F)cc3n2)C1 (stereo not drawn) [Compound 215, 2-(3-aminopyrrolidine-1-carbonyl)-N-[2-fluoro-4-(pyrazol-1-yl)phenyl]-1,6-naphthyridin-7-amine] | > 1 | 0.1 to 1 | + (10-fold or less more active against CDK5 than CDK2)
12 | CN1CCC(C(=O)c2ccc3cnc(Nc4ccc(-n5cccn5)cc4F)cc3n2)CC1 [Compound 217, N-[2-fluoro-4-(pyrazol-1-yl)phenyl]-2-(1-methylpiperidine-4-carbonyl)-1,6-naphthyridin-7-amine] | < 0.01 | < 0.01 | ++ (greater than 10-fold and less than or equal to 100-fold more active against CDK5 than CDK2)
13 | CN1CCC(O)(C(O)c2ccc3cnc(Nc4ccc(-n5cccn5)cc4F)cc3n2)CC1 (stereo not drawn) [Compound 240, 4-[(7-[[2-fluoro-4-(pyrazol-1-yl)phenyl]amino]-1,6-naphthyridin-2-yl) (hydroxy)methyl]-1-methylpiperidin-4-ol] | > 1 | 0.1 to 1 | ++ (greater than 10-fold and less than or equal to 100-fold more active against CDK5 than CDK2)
14 | NC1CCCN(C(=O)c2ccc3cnc(Nc4ccc(-n5cccn5)cc4F)cc3n2)C1 (stereo not drawn) [Compound 242, 2-(3-aminopiperidine-1-carbonyl)-N-[2-fluoro-4-(pyrazol-1-yl)phenyl]-1,6-naphthyridin-7-amine] | > 1 | 0.1 to 1 | ++ (greater than 10-fold and less than or equal to 100-fold more active against CDK5 than CDK2)
15 | CN1CCN(S(=O)(=O)c2ccc3cnc(Nc4ccc(-n5ccc(CO)n5)cc4F)cc3n2)CC1 [Compound 245, [1-(3-fluoro-4-[[2-(4-methylpiperazin-1-ylsulfonyl)-1,6-naphthyridin-7-yl]amino]phenyl)pyrazol-3-yl]methanol] | 0.1 to 1 | 0.1 to 1 | + (10-fold or less more active against CDK5 than CDK2)
16 | CCC(c1ccc2cnc(Nc3ccc(-n4ccc(CO)n4)cc3F)cc2n1)C1CCN(C)CC1 (stereo not drawn) [Compound 246] | > 1 | 0.1 to 1 | ++ (greater than 10-fold and less than or equal to 100-fold more active against CDK5 than CDK2)
17 | CN1CCC(NS(=O)(=O)c2ccc3cnc(Nc4ccc(-n5ccc(CO)n5)cc4F)cc3n2)C1 (stereo not drawn) [Compound 248] | 0.1 to 1 | 0.01 to 0.1 | + (10-fold or less more active against CDK5 than CDK2)
18 | O=S(=O)(c1ccc2cnc(Nc3ccc(-n4ccc(CO)n4)cc3F)cc2n1)C1CCN(CC(O)CO)CC1 (stereo not drawn) [Compound 249] | 0.1 to 1 | < 0.01 | ++ (greater than 10-fold and less than or equal to 100-fold more active against CDK5 than CDK2)
19 | O=S(=O)(c1ccc2cnc(Nc3ccc(-n4ccc(CO)n4)cc3F)cc2n1)C1CCN(CC(O)CO)CC1 (stereo not drawn) [Compound 253] | 0.1 to 1 | 0.01 to 0.1 | ++ (greater than 10-fold and less than or equal to 100-fold more active against CDK5 than CDK2)
20 | CN1CCC(S(=O)(=O)c2ccc3cnc(Nc4cccc(C#CC(C)(C)O)c4)cc3n2)CC1 [Compound 256] | 0.01 to 0.1 | < 0.01 | +++ (greater than 100-fold more active against CDK5 than CDK2)
21 | CN1CCC(S(=O)(=O)c2ccc3cnc(Nc4ccc(S(=O)(=O)N(C)C)cn4)cc3n2)CC1 [Compound 257] | 0.01 to 0.1 | 0.01 to 0.1 | + (10-fold or less more active against CDK5 than CDK2)
22 | Cc1cc(OCCC(N)=O)ccc1Nc1cc2nc(S(=O)(=O)C3CCN(C)CC3)ccc2cn1 [Compound 258] | > 1 | < 0.01 | +++ (greater than 100-fold more active against CDK5 than CDK2)
23 | COc1cc(Nc2cc3nc(S(=O)(=O)C4CCN(C)CC4)ccc3cn2)ccc1NS(C)(=O)=O [Compound 259] | 0.01 to 0.1 | < 0.01 | ++ (greater than 10-fold and less than or equal to 100-fold more active against CDK5 than CDK2)
24 | Cc1cc(C)cc(Nc2cc3nc(S(=O)(=O)C4CCN(C)CC4)ccc3cn2)c1 [Compound 260] | 0.1 to 1 | < 0.01 | +++ (greater than 100-fold more active against CDK5 than CDK2)
25 | CN1CCC(S(=O)(=O)c2ccc3cnc(Nc4ccc(CN5CCOCC5)cc4)cc3n2)CC1 [Compound 261] | 0.1 to 1 | < 0.01 | +++ (greater than 100-fold more active against CDK5 than CDK2)
26 | CN1CCC(S(=O)(=O)c2ccc3cnc(Nc4ccc(N5CCOCC5)cc4)cc3n2)CC1 [Compound 262] | 0.01 to 0.1 | < 0.01 | ++ (greater than 10-fold and less than or equal to 100-fold more active against CDK5 than CDK2)
27 | CN1CCC(S(=O)(=O)c2ccc3cnc(Nc4ccc(Cn5cncn5)cc4)cc3n2)CC1 [Compound 263] | 0.01 to 0.1 | < 0.01 | ++ (greater than 10-fold and less than or equal to 100-fold more active against CDK5 than CDK2)
28 | COC(=O)CCc1nnc(Nc2cc3nc(S(=O)(=O)C4CCN(C)CC4)ccc3cn2)s1 [Compound 264] | > 1 | > 1 | + (10-fold or less more active against CDK5 than CDK2)
